Converted amounts (≈) assume the structure as drawn. Where two headings read alike, the source gives them in different places.
Assays:
Pseudomonas aerugenosa = experiment: MIC, broth two-fold serial dilution test, Pseudomonas aerugenosa (Psae); assay type: cell-based
Description: (§1) The compounds identified with a prime (') were the non-iodo analogues of the invention compounds, i.e., the compounds of formula III or IV. All data are reported in ppm of active ingredient required to control the respective organism. The indication "No In." means that the compound had no inhibitory activity at 500 ppm which was the maximum tested, and so if the "No In." compound were active, the minimum inhibitory concentration would be above 500 ppm. The comparative tests were not run side-by-side, but were run on different days using the same methods. […] A minimum inhibitory concentration (MIC) value is obtained using a broth, two-fold serial dilution test performed as follows: […] A volume of the stock solution is dispensed into culture media to give an initial starting test concentration of the compound of 500 ppm or 250 ppm. When the test is ready to be done, each vessel in the dilution series, except the first vessel, contains an equal volume of compound free broth. The first vessel contains twice the volume of broth with the starting concentration of test compound. One half of the broth from the first vessel is transferred to the second vessel. After being mixed, one half the resulting volume is removed from the second vessel and transferred to the third vessel. […] Each vessel is then inoculated with a cell suspension of the appropriate test organism. Bacteria are grown in broth and fungi on agar […] is grown in cooling tower media for a time and at a temperature appropriate to the species being tested. At the end of the growth period, the broth is vortexed to disperse the cells. In the case of fungi, the spores are harvested by pipetting water onto the slant and dislodging the spores with a sterile loop. The cell/spore suspension is standardized by controlling incubation time, temperature, and the volume of the diluent. The suspension is then used to inoculate the vessels containing the broth compound. The vessels are then incubated at the appropriate temperature. After the incubation, the vessels are examined for growth/no growth. The MIC is defined as the lowest concentration of compound that results in complete inhibition of growth of the test organism. BACTERIA: Pseudomonas fluorescens (Ps.fl), gram negative; Pseudomonas aerugenosa (Ps.ae), gram negative; Escherichia coli (E.c), gram negative; and Staphylococcus aureus (S.a), gram positive.

Escherichia coli = experiment: MIC, broth two-fold serial dilution test, Escherichia coli (Ecol); assay type: cell-based
Description: as §1

Staphylococcus aureus = experiment: MIC, broth two-fold serial dilution test, Staphylococcus aureus (Saur); assay type: cell-based
Description: as §1

Aspergillus niger = experiment: MIC, broth two-fold serial dilution test, Aspergillus niger (Anig); assay type: cell-based; details: TSB
Description: as §1, with “INDUSTRIAL FUNGI: Aspergillus niger (A.n); Aureobasidium pullulans (A.p)” for “BACTERIA: Pseudomonas fluorescens (Ps.fl), gram negative; Pseudomonas aerugenosa (Ps.ae), gram negative; Escherichia coli (E.c), gram negative; and Staphylococcus aureus (S.a), gram positive.”

[1] = tested on: Pseudoperonospora cubensis; experiment: whole plant or invertebrate; assay type: in vivo; details: for percent disease control CDM: in vivo
Piricularia oryzae [2] = experiment: whole plant or invertebrate; assay type: in vivo; details: Pyricularia oryzae, read-out: % Control RB
[3] = tested on: Pellicularia filamentosa (f. sp. sasiki); experiment: whole plant or invertebrate; assay type: in vivo; details: 120 h; read-out: % Control RSB
Phytophthora infestans = experiment: whole plant or invertebrate; assay type: in vivo; details: for pest or weed control at 50 ppm: read-out: % Control TLB, secondary greenhouse test (Table 5), 50 ppm; for percent disease control TLB: advanced greenhouse test (Table 6), 0.25 kg a.i./ha
[4] = tested on: Erysiphe graminis (f. sp. tritici); experiment: whole plant or invertebrate; assay type: in vivo; details: for percent disease control WPM: in vivo
[5] = tested on: Puccinia recondita (f. sp. tritici Races PKB and PLD); experiment: whole plant or invertebrate; assay type: in vivo
Septoria nodorum = details: in vivo
TLB, CDM, WLR, SNW, WPM = details: in vivo
Xanthomonas campestris = experiment: microbe, parasite or virus in culture; assay type: cell-based; details: read-out: % Control XAN
Piricularia oryzae [6] = experiment: microbe, parasite or virus in culture; assay type: cell-based; details: read-out: % Control PIR
Cochliobolus sativus = experiment: In-vitro plant disease test, HEL; assay type: cell-based; details: Bipolaris sorokiniana, read-out: % Control HEL
Rhizoctonia solani = experiment: microbe, parasite or virus in culture; assay type: cell-based; details: read-out: % Control RHI
Fusarium roseum = experiment: microbe, parasite or virus in culture; details: Fusarium sambucinum, read-out: % Control FUS
Description: FUS Fusarium roseum (Ascomycete)
Transfers in steps 1 and 2 are done in a laminar flow hood. All 8 fungi and the bacterium used in this test are transferred and maintained on potato dextrose agar plates each week (2 plates/organism). Organisms are used when they are the following ages: a. […] Culture flasks are inoculated with 6 mycelial plugs each (except for Pythium which is inoculated with only 3 plugs) taken from PDA plates. All liquid shaker cultures are used after 2 days growth.
PYU, PHY, RHI and FUS cultures are ground up (2-3 5 second bursts in a blender) and all but Pythium and Phytophthora are filtered through a double layer of sterile cheesecloth to remove large mycelial clumps. Ten ml of the culture solutions of R. solani and F. roseum are added to 90 ml of YSB and 10 ml of the P. capsici is added to 90 ml ASB. […] The inoculum mixtures are placed in microtiter plates using a 12-tipped pipet. 175 μl (single dose) or 100 μl (dose-response test) of inoculum broth is placed in each well of the microtiter plates. The plates with inoculated media are placed in the refrigerator overnight. There are two replications per treatment.
This operation is carried out in a chemistry hood. Six microtiter plates have 245 microliters of sterile water added to their wells ahead of time. 10 Mg a.i. of the compounds are placed in 1 ml 1:1 acetone:methanol. 5 Microliters of this solution (6 microliters in the case of the 50 ppm dose) is pipetted into the microtiter plates containing the sterile water according to the grid. There are 45 compounds and 3 scattered control treatments per plate. There are 2 replicates per treatment. 25 Microliters of solution is transferred to the inoculated plates with a 96 well replicator. The replicator is flame sterilized with alcohol, rinsed with sterile water, and blotted on sterile paper towels between each transfer.

Pythium ultimum = experiment: In-vitro plant disease test, PYU; assay type: cell-based; details: Globisporangium ultimum, read-out: % Control PYU
Phytophthora capsici = experiment: In-vitro plant disease test, PHY; assay type: cell-based; details: read-out: % Control PHY
[7] = Pseudoperonospora cubensis, in Cucumis sativus, 168 h, read-out: % Control CDM
[8] = Phytophthora infestans, in Solanum lycopersicum, 96 h, read-out: % Control TLB, greenhouse test (Table 4), 200 ppm
[9] = Phytophthora infestans, in Solanum lycopersicum, 96 h
[10] = Phytophthora infestans, in Solanum lycopersicum, 96 h, read-out: % Control TLB, secondary greenhouse test (Table 5), 200 ppm
[11] = Blumeria graminis, read-out: % Control WPM
[12] = Puccinia recondita, 240 h, read-out: % Control WLR

Structure (SMILES) | MIC (Pseudomonas aerugenosa; M9G) | MIC (Pseudomonas aerugenosa; TSB) | MIC (Escherichia coli; M9G) | MIC (Escherichia coli; TSB) | MIC (Staphylococcus aureus; M9G) | MIC (Staphylococcus aureus; TSB) | MIC (Aspergillus niger) | pest or weed control at 200 ppm [1, 7] | percent disease control CDM [1] | pest or weed control at 50 ppm (Piricularia oryzae [2]) | pest or weed control at 200 ppm (Piricularia oryzae [2]) | pest or weed control at 50 ppm [3] | pest or weed control at 200 ppm (Phytophthora infestans; [8]) | pest or weed control at 50 ppm (Phytophthora infestans; [9]) | percent disease control TLB (Phytophthora infestans) | pest or weed control at 50 ppm [4, 11] | pest or weed control at 200 ppm [4, 11] | percent disease control WPM [4] | pest or weed control at 50 ppm [5, 12] | pest or weed control at 200 ppm [5, 12] | other results
CC1C(=O)N(c2ccc(Cl)cc2)C(=O)N1CC#CI (centres unmarked) [Compound 2, 1-(3-iodo-2-propynyl)-3-(4-chlorophenyl)-5-methylhydantoin] | > 500 µg/mL | > 500 µg/mL | > 500 µg/mL | 500 µg/mL (≈ 1290 µM) | > 500 µg/mL | > 500 µg/mL | 2 µg/mL (≈ 5.15 µM) | 0% | 98.0% | 50% | 75% | 0% | 0% | 50% | 38.0% | 50% | 75% | 53.0% | 80% | 85% | pest or weed control at 200 ppm [3]: 0%; pest or weed control at 200 ppm (Phytophthora infestans; [10]): 75%; % Control WLR ([5]; in vivo): 90%; percent disease control WLR ([5]; in vivo): 83.0%; percent disease control SNW (Septoria nodorum): 90.0%; percent disease control Average (TLB, CDM, WLR, SNW, WPM): 72.4%
CC1C(=O)N(c2ccc(F)cc2)C(=O)N1CC#CI (centres unmarked) [Compound 3, 1-(3-iodo-2-propynyl)-3-(4-fiuorophenyl)-5-methylhydantoin] | > 500 µg/mL | > 500 µg/mL | > 500 µg/mL | 250 µg/mL (≈ 672 µM) | > 500 µg/mL | > 500 µg/mL | 4 µg/mL (≈ 10.7 µM) | 50% | 100.0% | 50% | 50% | 0% | 0% | 0% | 52.0% | 50% | 40% | 65.0% | 0% | 95% | pest or weed control at 200 ppm [3]: 0%; pest or weed control at 200 ppm (Phytophthora infestans; [10]): 95%; percent disease control WLR ([5]; in vivo): 75.0%; percent disease control SNW (Septoria nodorum): 47.0%; percent disease control Average (TLB, CDM, WLR, SNW, WPM): 67.8%
O=C1N(c2cc(Cl)cc(Cl)c2)C(=O)C2(CCCC2)N1CC#CI [Compound 4, 1-(3-iodo-2-propynyl)-3-(3,5-dichlorophenyl)-5,5-spirocyclopentane-hydantoin] | > 500 µg/mL | > 500 µg/mL | > 500 µg/mL | > 500 µg/mL | > 500 µg/mL | > 500 µg/mL | 16 µg/mL (≈ 34.5 µM) | 50% | 100.0% | 50% | 50% | 50% | 95% | 0% | 30.0% | 0% | 25% | 63.0% | 0% | 0% | pest or weed control at 200 ppm [3]: 50%; pest or weed control at 200 ppm (Phytophthora infestans; [10]): 0%; percent disease control WLR ([5]; in vivo): 80.0%; percent disease control SNW (Septoria nodorum): 53.0%; percent disease control Average (TLB, CDM, WLR, SNW, WPM): 65.2%
O=C1N(c2cc(Cl)cc(Cl)c2)C(=O)C2(CCCCC2)N1CC#CI [Compound 5, 1-(3-iodo-2-propynyl)-3-(3,5-dichlorophenyl)-5,5-spirocyclohexane-hydantoin] | > 500 µg/mL | > 500 µg/mL | > 500 µg/mL | > 500 µg/mL | > 500 µg/mL | > 500 µg/mL | > 500 µg/mL | 40% | 100.0% | 50% |  | 25% | 95% | 0% | 28.0% | 50% | 0% | 67.0% | 0% | 0% | percent disease control WLR ([5]; in vivo): 80.0%; percent disease control SNW (Septoria nodorum): 72.0%; percent disease control Average (TLB, CDM, WLR, SNW, WPM): 69.4%
CC1(C)C(=O)N(CC#CI)C(=O)N1CC#CI [Compound 11] | 125 µg/mL (≈ 274 µM) |  | 64 µg/mL (≈ 140 µM) |  | 32 µg/mL (≈ 70.2 µM) |  | < 4 µg/mL |  |  |  |  |  |  |  |  |  |  |  |  |  | inhibition of growth at 25 ppm (Xanthomonas campestris): 0%; inhibition of growth at 50 ppm (Xanthomonas campestris): 0%; inhibition of growth at 25 ppm (Piricularia oryzae [6]): 100%; inhibition of growth at 50 ppm (Piricularia oryzae [6]): 100%; inhibition of growth at 25 ppm (Cochliobolus sativus): 90%; inhibition of growth at 25 ppm (Rhizoctonia solani): 100%; inhibition of growth at 50 ppm (Rhizoctonia solani): 100%; pest or weed control at 100 ppm [1, 7]: 100%; pest or weed control at 100 ppm (Piricularia oryzae [2]): 95%; pest or weed control at 100 ppm (Phytophthora infestans; Phytophthora infestans, in Solanum lycopersicum, 96 h, read-out: % Control TLB, greenhouse test (Table 4), 100 ppm): 0%; pest or weed control at 100 ppm [4, 11]: 85%; pest or weed control at 100 ppm [5, 12]: 50%; inhibition of growth at 25 ppm (Fusarium roseum): 0%; inhibition of growth at 50 ppm (Fusarium roseum): 100%
CC1(C)NC(=O)N(CC#CI)C1=O [Compound 12] | 250 µg/mL (≈ 856 µM) | > 500 µg/mL | 125 µg/mL (≈ 428 µM) | 250 µg/mL (≈ 856 µM) | 125 µg/mL (≈ 428 µM) | 16 µg/mL (≈ 54.8 µM) | 8 µg/mL (≈ 27.4 µM) | 0% |  |  | 95% |  | 0% |  |  |  | 0% |  |  | 25% | inhibition of growth at 25 ppm (Pythium ultimum): 100%; inhibition of growth at 25 ppm (Xanthomonas campestris): 0%; inhibition of growth at 25 ppm (Piricularia oryzae [6]): 90%; inhibition of growth at 25 ppm (Phytophthora capsici): 100%; inhibition of growth at 25 ppm (Rhizoctonia solani): 100%; inhibition of growth at 25 ppm (Fusarium roseum): 75%

— patent publication US5346913A, “N-iodopropargyl hydantoin compounds, compositions, preparation, and use as antimicrobial agents” (Rohm and Haas Company, priority 1992, dated 1994)
